In paper PMC4104029, “Mechanism of Action of Compound-13: An α1-Selective Small Molecule Activator of AMPK” (Chemistry & Biology, 2014):
Where two headings read alike, the source gives them in different places.

How the values were obtained:
[1] = tested on: panel of 138 protein kinases; experiment: Kinase inhibition screen; format: biochemical; details: 10 μM
Protocol: Supplemental Figure Legends:
Figure S1, related to Figures 1-3. Subunit composition of AMPK preparations used in this study. (A) Heterotrimeric AMPK complexes (10 ng) produced in both Sf9 (Sigma and Signalchem) and E.coli (in our laboratory) were analysed by Western blotting using isoform specific antibodies. Note that both the α2/α1-HOOK and α2/α1-LOOP chimeras are no longer recognised by the anti-α2 antibody as the epitope has been replaced (see Fig S4). (B) Heterotrimeric AMPK α2/α1 chimeric complexes expressed in E.coli (2 μg) were separated by SDS-PAGE and stained with Coomassie G-250. Arrows indicate the position of the […]
Figure S2, related to Figure 1. C2 has negligible effects on a panel of 138 protein kinases.
Kinase inhibition screen was performed by the International Centre for Kinase profiling (Dundee). Assays were performed in duplicate using 10 µM C2 and are representative of two independent screens. Results are shown in rank order as mean % activity compared with controls in the absence of compound ± SD. […]
Figure S3, related to Figure 2. […] Results are expressed as mean Pi incorporated in nmol.min-1.mg-1 ± SD. […] Results are expressed as fold increase in activity relative to controls in the absence of compound ± SD.
(E) C2 and AMP displace a GST-AMPKγ2 subunit fusion from ATP-γ-Sepharose. […] The presence of eluted AMPKγ2 was analysed by SDS-PAGE and staining with colloidal Coomassie. […]

whole-body lipogenesis = details: among a series of prodrugs; ref Gómez-Galeno et al., 2010; cited from earlier work
[2] = tested on: primary mouse hepatocytes (WT); experiment: Lipid synthesis, [1-14C]acetate incorporation; format: cell-based; details: for IC50: Mus musculus, Hepatocyte
Protocol: Figure 5 C13 Inhibits Lipid Synthesis and Fatty Acid Esterification in Mouse Hepatocytes in an AMPK-Dependent Manner (A) Mouse hepatocytes were treated with the indicated concentrations of C13 and labeled with [1-^14C]acetate for 3 hr. A769662 (100 μM) and AICAR (0.5 mM) were included as positive controls. Rates of fatty acid and sterol synthesis were estimated by incorporation into saponifiable and nonsaponifiable lipids. Results are expressed as the mean acetate incorporated in micromoles per gram-hour ± SD and are representative of two independent experiments. (B) Mouse hepatocytes were treated with the indicated compounds for 30 min and labeled with media containing 0.5 mM palmitic acid (1 mCi⋅mmol^−1 [9,10-^3H]palmitic acid) for an additional 60 min. Incorporation into triglyceride was determined as described in Experimental Procedures and results are expressed as palmitate incorporated in micromoles per gram-hour ± SD and are representative of three independent experiments. (C and D) Mouse hepatocytes from WT or AMPK-null (AMPKα1^−/− -α2^−/−) mice were incubated with the indicated concentrations of C13 and labeled with [1-^14C]acetate for 3 hr. Rates of fatty acid and sterol synthesis were estimated from incorporation into saponifiable (C) and nonsaponifiable (D) lipids. Results are expressed as percentage WT vehicle and represent the mean ± SD for three independent experiments. (E) Hepatocytes were treated with the indicated concentrations of C13 for 3 hr, and lysates were blotted with the indicated antibodies.
Lipid synthesis was determined by labeling adherent cultures of primary hepatocytes with [1-^14C]acetate. After overnight culture, hepatocytes (5 × 10^5) were washed with warm PBS and allowed to rest for 3 hr in fresh M199. Cells were treated with vehicle (0.1% DMSO) or the indicated compounds and labeled with 1 mCi⋅mmol^−1 [1-^14C]acetate for 3 hr. Cells were washed with ice-cold PBS, gently scraped into 0.5 ml PBS and saponified in methanolic KOH at 80°C for 1 hr. Nonsaponifiable and saponifiable lipids were extracted with petroleum ether before and after acidification with HCl. Lipid fractions were washed with 5% HAc, dried using N2, and dissolved in scintillant for the determination of [^14C] incorporation. Lipogenesis in hepatocytes from AMPKβ1/β2-KO mice was determined in media containing [^3H]acetate (0.2 mCi⋅mmol^−1). After 4 hr labeling, total lipids were extracted using the method of [Bligh and Dyer (1959)], and incorporated [^3H] was determined by scintillation counting. The results are expressed as micromoles acetate incorporated per gram-hour.

SMILES	effect on upstream kinases of AMPK ([1]; LKB1, CaMKKβ, and TAK1)	effect on kinase activity ([1]; includes AMPK-related kinase family)	inhibition of whole-body lipogenesis (whole-body lipogenesis)	reduction of lipid synthesis ([2]; 1 μM, WT cells)	IC50 ([2]; [14C]acetate, 3 hr, read-out: IC50, inhibition of lipid synthesis, nonsaponifiable lipids)	IC50 ([2]; [14C]acetate, 3 hr, read-out: IC50, inhibition of lipid synthesis, saponifiable lipids)	concentration of maximal effect on lipid synthesis ([2]; [14C]acetate, 3 hr)	potency relative to A769662 ([2]; similar inhibition with 3 μM C13 and 100 μM A769662)
O=P(O)(O)c1ccc(-c2cc(O)on2)o1 [Compound C2, 5-(5-hydroxyl-isoxazol-3-yl)-furan-2-phosphonic acid]	did not affect	majority were not affected	–	–	–	–	–	–
CC(C)C(=O)OCOP(=O)(OCOC(=O)C(C)C)c1ccc(C2=NOC(=O)C2)o1 [Compound C13]	–	–	most potent inhibition	about 40%	1500 nM	1700 nM	30 µM	≈ 30 fold
